Test in all cases: HTRF KinEASE-TK IC50 determination (Rauh Lab)
What all share (format): biochemical
(In TR-FRET formats the signal depends on donor and acceptor labels being close together.)

The target in test [1] is T1, EGFR-L858R (Homo sapiens, UniProt P00533, L858R).
T1 construct: purchased Carna Biosciences lot13CBS-0537B
As to conditions: ATP at Km (9 µM); read-out: IC50, EGFR L858R mutant. As to the method:
(§1) IC 50 determinations for EGFR, its mutants and ErbB2-insYVMA (Carna Biosciences, lot13CBS-0005K for EGFR-wt; Carna, lot13CBS-0537B for EGFR-L858R; Carna, lot12CBS-0765B for EGFR-L858R/T790M; and ProQinase, lot1525-0000-1/003 for ErbB2-insYVMA) were performed with the HTRF KinEASE-TK assay from Cisbio according to the manufacturer’s instructions. Briefly, the amount of kinase in each reaction well was set to 0.60 ng EGFR-wt (0.67 nM), 0.10 ng EGFR-L858R (0.11 nM), 0.07 ng EGFR-T790M/L858R (0.08 nM), or 0.01 ng ErbB2-insYVMA (0.01 nM). An artificial substrate peptide (TK-substrate from Cisbio) was phosphorylated by EGFR or ErbB2. After completion of the reaction (reaction times: 25 min for EGFR-wt, 15 min for L858R, 20 min for L858R/T790M, and 40 min for ErbB2-insYVMA), the reaction was stopped by addition of buffer containing EDTA as well as an anti-phosphotyrosine antibody labeled with europium cryptate and streptavidin labeled with the fluorophore XL665. FRET between europium cryptate and XL665 was measured after an additional hour of incubation to quantify the phosphorylation of the substrate peptide. […] Kinase and inhibitor were preincubated for 30 min before the reaction was started by addition of ATP and substrate peptide. An EnVision multimode plate reader (Perkin Elmer) was used to measure the fluorescence of the samples at 620 nm (Eu ^3+ -labeled antibody) and 665 nm (XL665-labeled streptavidin) 50 µs after excitation at 320 nm. The quotient of both intensities for reactions made with eight different inhibitor concentrations was then analyzed using the Quattro Software Suite for IC 50 -determination. Each reaction was performed in duplicate, and at least three independent determinations of each IC 50 were made.

For test [2], the target named is T2, EGFR-L858R/T790M (Homo sapiens, UniProt P00533, L858R/T790M).
T2 construct: purchased Carna Biosciences lot12CBS-0765B
As to conditions: ATP at Km (4 µM); read-out: IC50, EGFR L858R/T790M double mutant. As to the method:
as §1

In test [3] the target is T3, ErbB2-insYVMA (Homo sapiens, UniProt P04626, INS775YVMA).
T3 construct: purchased ProQinase lot1525-0000-1/003
As to conditions: ATP at Km (6 µM); racemate tested; read-out: IC50 ± s.d., ErbB2insYVMA. As to the method: as §1

For test [4], the target named is T4, EGFR-wt (Homo sapiens, UniProt P00533).
T4 construct: purchased Carna Biosciences lot13CBS-0005K
As to conditions: ATP at Km (9.5 µM), racemate tested, read-out: IC50 ± s.d., EGFR. On the procedure: as §1

Several values for one entry are separate records, joined by “and”; a condition that tells them apart may be missing. Equal entries are not always repeated.

T3 sequence (P04626 with tags, fused parts or gaps INS775YVMA limits assumed): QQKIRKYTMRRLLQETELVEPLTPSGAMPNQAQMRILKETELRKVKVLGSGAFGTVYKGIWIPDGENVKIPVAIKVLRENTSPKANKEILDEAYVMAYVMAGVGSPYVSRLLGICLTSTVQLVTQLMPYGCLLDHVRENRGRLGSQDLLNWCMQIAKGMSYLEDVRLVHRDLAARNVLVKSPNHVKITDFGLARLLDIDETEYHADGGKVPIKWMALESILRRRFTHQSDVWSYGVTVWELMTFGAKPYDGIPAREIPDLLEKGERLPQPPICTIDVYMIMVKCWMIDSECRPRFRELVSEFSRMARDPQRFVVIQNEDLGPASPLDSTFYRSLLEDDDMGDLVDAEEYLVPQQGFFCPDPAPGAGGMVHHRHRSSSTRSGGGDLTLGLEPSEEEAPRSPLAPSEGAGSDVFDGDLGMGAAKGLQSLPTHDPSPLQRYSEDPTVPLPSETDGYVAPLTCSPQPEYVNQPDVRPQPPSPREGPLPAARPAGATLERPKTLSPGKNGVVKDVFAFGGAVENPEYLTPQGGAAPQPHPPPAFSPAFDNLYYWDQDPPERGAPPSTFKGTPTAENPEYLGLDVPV
T2 sequence (P00533 25-1210 T790M/L858R): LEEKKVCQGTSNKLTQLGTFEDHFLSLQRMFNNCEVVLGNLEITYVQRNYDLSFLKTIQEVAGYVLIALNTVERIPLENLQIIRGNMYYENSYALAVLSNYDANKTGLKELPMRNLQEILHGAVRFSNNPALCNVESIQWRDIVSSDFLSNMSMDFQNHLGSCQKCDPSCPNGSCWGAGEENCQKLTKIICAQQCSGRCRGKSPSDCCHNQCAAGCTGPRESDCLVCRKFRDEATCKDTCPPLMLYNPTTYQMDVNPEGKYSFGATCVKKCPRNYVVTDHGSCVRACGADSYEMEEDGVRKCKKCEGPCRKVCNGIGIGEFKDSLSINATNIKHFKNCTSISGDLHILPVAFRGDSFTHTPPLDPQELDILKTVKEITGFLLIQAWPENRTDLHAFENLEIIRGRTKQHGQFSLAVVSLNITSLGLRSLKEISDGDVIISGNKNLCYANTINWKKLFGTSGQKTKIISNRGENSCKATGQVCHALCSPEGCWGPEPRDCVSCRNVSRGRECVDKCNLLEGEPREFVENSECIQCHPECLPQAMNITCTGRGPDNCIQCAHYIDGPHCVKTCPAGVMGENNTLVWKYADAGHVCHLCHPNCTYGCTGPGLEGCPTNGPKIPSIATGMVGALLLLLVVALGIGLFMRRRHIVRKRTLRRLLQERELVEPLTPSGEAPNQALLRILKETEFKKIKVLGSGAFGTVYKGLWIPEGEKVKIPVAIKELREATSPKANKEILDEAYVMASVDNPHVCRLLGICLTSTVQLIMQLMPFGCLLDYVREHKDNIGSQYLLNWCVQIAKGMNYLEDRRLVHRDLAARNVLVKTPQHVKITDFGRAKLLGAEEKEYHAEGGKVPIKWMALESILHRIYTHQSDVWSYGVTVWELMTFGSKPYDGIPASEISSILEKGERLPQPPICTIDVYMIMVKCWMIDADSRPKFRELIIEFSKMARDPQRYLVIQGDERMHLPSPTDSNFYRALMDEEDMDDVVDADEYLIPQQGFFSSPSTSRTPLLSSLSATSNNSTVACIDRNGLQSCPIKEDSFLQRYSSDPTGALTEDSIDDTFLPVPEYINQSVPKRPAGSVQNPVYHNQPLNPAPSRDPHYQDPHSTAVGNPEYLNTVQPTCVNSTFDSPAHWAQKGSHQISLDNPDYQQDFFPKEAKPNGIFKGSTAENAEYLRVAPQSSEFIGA
T1 sequence (P00533 25-1210 L858R): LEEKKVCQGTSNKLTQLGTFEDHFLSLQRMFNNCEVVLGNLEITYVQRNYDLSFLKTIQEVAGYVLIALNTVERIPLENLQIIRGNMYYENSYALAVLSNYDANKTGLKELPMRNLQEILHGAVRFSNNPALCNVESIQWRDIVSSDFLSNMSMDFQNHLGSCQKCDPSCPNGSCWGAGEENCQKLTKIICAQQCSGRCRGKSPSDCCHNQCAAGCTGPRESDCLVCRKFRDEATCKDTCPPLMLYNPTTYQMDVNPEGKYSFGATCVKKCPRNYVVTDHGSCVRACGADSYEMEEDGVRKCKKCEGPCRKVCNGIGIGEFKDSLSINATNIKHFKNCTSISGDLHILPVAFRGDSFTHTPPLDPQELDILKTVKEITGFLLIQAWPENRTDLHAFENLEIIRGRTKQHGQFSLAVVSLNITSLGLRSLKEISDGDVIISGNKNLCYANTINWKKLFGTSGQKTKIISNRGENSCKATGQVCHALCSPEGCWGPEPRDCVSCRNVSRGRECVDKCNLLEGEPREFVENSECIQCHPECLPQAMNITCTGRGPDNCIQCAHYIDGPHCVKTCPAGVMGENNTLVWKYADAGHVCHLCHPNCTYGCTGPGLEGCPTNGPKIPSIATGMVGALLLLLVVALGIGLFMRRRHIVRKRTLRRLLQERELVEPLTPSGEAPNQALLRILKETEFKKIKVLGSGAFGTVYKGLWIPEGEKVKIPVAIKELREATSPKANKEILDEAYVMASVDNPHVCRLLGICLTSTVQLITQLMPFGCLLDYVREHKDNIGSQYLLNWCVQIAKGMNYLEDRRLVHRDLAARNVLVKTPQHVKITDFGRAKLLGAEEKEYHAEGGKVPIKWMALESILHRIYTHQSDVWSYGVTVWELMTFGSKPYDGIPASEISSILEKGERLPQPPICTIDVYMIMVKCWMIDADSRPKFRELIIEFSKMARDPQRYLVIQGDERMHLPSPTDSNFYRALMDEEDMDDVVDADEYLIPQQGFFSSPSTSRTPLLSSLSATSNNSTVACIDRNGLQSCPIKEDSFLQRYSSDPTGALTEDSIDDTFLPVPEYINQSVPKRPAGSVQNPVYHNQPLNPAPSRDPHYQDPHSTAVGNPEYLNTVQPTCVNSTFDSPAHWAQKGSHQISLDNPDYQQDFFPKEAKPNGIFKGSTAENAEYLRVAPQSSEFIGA
T4 sequence (P00533 25-1210): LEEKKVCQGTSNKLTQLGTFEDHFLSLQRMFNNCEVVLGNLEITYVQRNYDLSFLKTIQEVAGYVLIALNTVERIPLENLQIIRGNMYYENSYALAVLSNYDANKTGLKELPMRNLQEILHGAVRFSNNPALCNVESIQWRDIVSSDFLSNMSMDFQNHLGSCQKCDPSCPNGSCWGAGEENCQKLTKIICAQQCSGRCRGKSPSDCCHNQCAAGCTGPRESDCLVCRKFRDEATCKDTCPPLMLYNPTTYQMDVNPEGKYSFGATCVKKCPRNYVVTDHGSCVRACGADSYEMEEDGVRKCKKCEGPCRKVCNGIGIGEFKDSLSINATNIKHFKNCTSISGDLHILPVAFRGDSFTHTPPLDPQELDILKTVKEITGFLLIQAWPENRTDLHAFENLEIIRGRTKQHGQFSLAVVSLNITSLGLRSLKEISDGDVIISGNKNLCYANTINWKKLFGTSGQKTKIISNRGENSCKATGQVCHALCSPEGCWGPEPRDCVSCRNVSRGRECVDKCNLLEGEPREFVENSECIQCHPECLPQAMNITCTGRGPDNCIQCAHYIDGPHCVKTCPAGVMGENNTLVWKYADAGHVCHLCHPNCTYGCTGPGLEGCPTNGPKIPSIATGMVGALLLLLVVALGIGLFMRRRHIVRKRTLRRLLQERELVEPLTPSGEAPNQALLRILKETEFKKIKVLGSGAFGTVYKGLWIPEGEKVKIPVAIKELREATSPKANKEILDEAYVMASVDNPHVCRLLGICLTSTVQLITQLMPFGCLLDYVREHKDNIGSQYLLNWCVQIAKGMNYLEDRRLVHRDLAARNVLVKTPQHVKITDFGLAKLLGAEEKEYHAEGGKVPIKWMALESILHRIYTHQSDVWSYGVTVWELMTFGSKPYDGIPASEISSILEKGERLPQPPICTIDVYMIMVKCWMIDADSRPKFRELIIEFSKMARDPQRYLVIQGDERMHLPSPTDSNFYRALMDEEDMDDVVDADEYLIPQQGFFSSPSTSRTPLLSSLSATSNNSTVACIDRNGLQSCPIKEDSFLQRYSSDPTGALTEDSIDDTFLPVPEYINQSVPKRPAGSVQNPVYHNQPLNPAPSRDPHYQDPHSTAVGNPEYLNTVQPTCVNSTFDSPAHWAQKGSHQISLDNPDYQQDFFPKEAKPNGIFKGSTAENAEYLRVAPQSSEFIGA

Regarding `COC(=O)Cc1ccc(Oc2ncnc3sc4c(c23)CC[C@@H](C)C4)cc1` (racemic) [DS39984], the IC50 in test [1] was 2350 ± 397 nM; in test [2] it was greater than 10000 nM; in test [3], < 324 nM and 220 nM; in test [4], 324 ± 50 nM.

Values taken from article PMC7865522, “Analyzing Kinase Similarity in Small Molecule and Protein Structural Space to Explore the Limits of Multi-Target Screening” (Molecules, 2021).
